Test results from patent publication US7208517B1, “Endothelin antagonists” (Abbott Labortories, priority 1994, dated 2007).

These compounds were tested against T1, ETA Receptor (Rattus norvegicus, UniProt P26684) (assay: [125I]ET-1 binding to membranes from MMQ cells (ETA receptor binding assay, Table 4)). Conditions: test compound at 1 μM; 0.1 nM [125I]ET-1, MMQ cell membranes, 4 hours at 25° C.
T1 construct: endogenous in cells; host or cells: MMQ rat pituitary cells (membranes)
T1 sequence (P26684 21-426): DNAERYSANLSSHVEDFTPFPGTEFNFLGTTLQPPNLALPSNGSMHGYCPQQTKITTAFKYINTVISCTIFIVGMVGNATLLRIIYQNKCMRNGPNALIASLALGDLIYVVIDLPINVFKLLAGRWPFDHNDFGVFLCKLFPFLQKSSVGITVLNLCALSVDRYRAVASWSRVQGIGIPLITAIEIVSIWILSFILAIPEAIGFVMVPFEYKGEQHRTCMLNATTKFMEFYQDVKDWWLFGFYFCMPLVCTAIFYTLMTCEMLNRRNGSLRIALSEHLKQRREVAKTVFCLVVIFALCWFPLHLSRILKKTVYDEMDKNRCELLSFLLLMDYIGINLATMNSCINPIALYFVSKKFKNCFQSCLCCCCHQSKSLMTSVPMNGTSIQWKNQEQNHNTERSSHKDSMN
Description: Preparation of Membranes from MMQ Cells:
MMQ [MacLeod/MacQueen/Login cell line (prolactin secreting rat pituitary cells)] cells from 150 mL culture flasks were collected by centrifugation (1000×g for 10 min) and then homogenized in 25 mL of 10 mM Hepes (pH 7.4) containing 0.25 M sucrose and protease inhibitors [3 mM EDTA, 0.1 mM PMSF, and 5 μg/mL Pepstatin A] by a micro ultrasonic cell disrupter (Kontes). The mixture was centrifuged at 1000×g for 10 min. The supernatant was collected and centrifuged at 60,000×g for 60 min. The precipitate was resuspended in 20 mM Tris, pH 7.4 containing the above protease inhibitors and centrifuged again. The final pellet was resuspended in 20 mM Tris, pH 7.4 containing protease inhibitors and stored at −80° C. until used. Protein content was determined by the Bio-Rad dye-binding protein assay.
Binding assays were performed in 96-well microtiter plates pretreated with 0.1% BSA. […] After incubation, unbound ligands were separated from bound ligands by a vacuum filtration method using glass-fiber filter strips in PHD cell harvesters (Cambridge Technology, Inc., MA), followed by washing the filter strips with saline (1 mL) for three times. Nonspecific binding was determined in the presence of 1 μM ET-1.

| Structure (SMILES) | % Inhibition of ETA at 1 μM |
| --- | --- |
| CCCCN(CCCC)C(=O)C(C)N1CC(c2ccc3c(c2)OCO3)C(C(=O)O)C1c1ccc(OC)cc1 (racemic) [Example 91C, trans,trans-2-(4-Methoxyphenyl)-4-(1,3-benzodioxol-5-yl)-1-((N,N-dibutylamino)carbonyl-1-(RS)-ethyl)pyrrolidine-3-carboxylic acid] | 91.6% |
| CCCN(CCN1C[C@H](c2ccc3c(c2)OCO3)[C@@H](C(=O)O)[C@@H]1c1ccc(OC)cc1)S(=O)(=O)CC(C)C (relative stereo) [Example 303, trans,trans-2-(4-Methoxyphenyl)-4-(1,3-benzodioxol-5-yl)-1-(2-(N-propyl-N-(2-methylpropanesulfonyl)amino)ethyl)-pyrrolidine-3-carboxylic acid] | 87.2% |
| CCCN(CCN1C[C@H](c2ccc3c(c2)OCO3)[C@@H](C(=O)O)[C@@H]1c1ccc(OC)cc1)S(=O)(=O)N(C)C (relative stereo) [Example 315, trans,trans-2-(4-Methoxyphenyl)-4-(1,3-benzodioxol-5-yl)-1-(2-(N-propyl-N-dimethylsulfamoylamino)ethyl)-pyrrolidine-3-carboxylic acid] | 82.7% |
| COc1ccc(C2C(C(=O)O)C(c3ccc4c(c3)OCO4)CN2Cc2ccc(F)cc2)cc1 (stereo not drawn) [Example 3, trans,trans-2-(4-Methoxyphenyl)-4-(1,3-benzodioxol-5-yl)-1-(4-fluorobenzyl)-pyrrolidine-3-carboxylic acid] | 42.2% |
| COc1ccc(C2C(C(=O)O)C(c3ccc4c(c3)OCO4)CN2CCc2ccccn2)cc1 (stereo not drawn) [Example 7, trans,trans-2-(4-Methoxyphenyl)-4-(1,3-benzodioxol-5-yl)-1-[2-(2-pyridyl)ethyl]-pyrrolidine-3-carboxylic acid] | 63.4% |
| COc1ccc(NC(=O)N2CC(c3ccc4c(c3)OCO4)C(C(=O)O)C2c2ccc(OC)cc2)cc1 (stereo not drawn) [Example 10, trans,trans-2-(4-Methoxyphenyl)-4-(1,3-benzodioxol-5-yl)-1-(4-methoxyphenylaminocarbonyl)-3-pyrrolidine-3-carboxylic acid] | 66.1% |
| COc1ccc(C2C(C(=O)O)C(c3ccc4c(c3)OCO4)CN2CCOc2ccccc2)cc1 (stereo not drawn) [Example 21, trans,trans-2-(4-Methoxyphenyl)-4-(1,3-benzodioxol-5-yl)-1-(2-phenoxyethyl)-pyrrolidine-3-carboxylic acid] | 56.3% |
| CCCCOCCN1CC(c2ccc3c(c2)OCO3)C(C(=O)O)C1c1ccc(OC)cc1 (stereo not drawn) [Example 23, trans,trans-2-(4-Methoxyphenyl)-4-(1,3-benzodioxol-5-yl)-1-(2-butoxyethyl)-pyrrolidine-3-carboxylic acid] | 85.9% |
| CCCCOCCN1CC(c2ccc(OC)cc2)C(C(=O)O)C1c1ccc2c(c1)OCO2 (stereo not drawn) [Example 27, trans,trans-2-(1,3-Benzodioxol-5-yl)-4-(4-methoxyphenyl)-1-(butoxyethyl)-pyrrolidine-3-carboxylic acid] | 61.2% |

Results, then the compound that gave them:

| % Inhibition of ETA at 1 μM | Structure (SMILES) |
| --- | --- |
| 89.8% | COc1ccc(C2C(C(=O)O)C(c3ccc4c(c3)OCO4)CN2CC(=O)N2CC[C@@H]3CCCC[C@H]3C2)cc1 (relative stereo) [Example 293, trans—trans-2-(4-Methoxyphenyl)-4-(1,3-benzodioxol-5-yl)-1-[decahydroisoquinolin-2-carbonylmethyl]-pyrrolidine-3-carboxylic acid] |
| 58.4% | COc1ccc(C2C(C(=O)O)C(c3ccc4c(c3)OCO4)CN2CC(N)=O)cc1 (stereo not drawn) [Example 2, trans,trans-2-(4-Methoxyphenyl)-4-(1,3-benzodioxol-5-yl)-1-(aminocarbonylmethyl)-pyrrolidine-3-carboxylic acid] |
| 78.2% | CCOCCN1CC(c2ccc3c(c2)OCO3)C(C(=O)O)C1c1ccc(OC)cc1 (stereo not drawn) [Example 4, trans,trans-2-(4-Methoxyphenyl)-4-(1,3-benzodioxol-5-yl)-1-(2-ethoxyethyl)-pyrrolidine-3-carboxylic acid] |
| 95.1% | CCCOCCN1CC(c2ccc3c(c2)OCO3)C(C(=O)O)C1c1ccc(OC)cc1 (stereo not drawn) [Example 5, trans,trans-2-(4-Methoxyphenyl)-4-(1,3-benzodioxol-5-yl)-1-(2-propoxyethyl)-pyrrolidine-3-carboxylic acid] |
| 34.9% | COCCOCCN1CC(c2ccc3c(c2)OCO3)C(C(=O)O)C1c1ccc(OC)cc1 (stereo not drawn) [Example 6B, trans,trans-2-(4-Methoxyphenyl)-4-(1,3-benzodioxol-5-yl)-1-[2-(2-methoxyethoxy)ethyl]-pyrrolidine-3-carboxylic acid] |
| 69.2% | CCCCNC(=O)N1CC(c2ccc3c(c2)OCO3)C(C(=O)O)C1c1ccc(OC)cc1 (stereo not drawn) [Example 9, trans,trans-2-(4-Methoxyphenyl)-4-(1,3-benzodioxole-5-yl)-1-(butylaminocarbonyl)-pyrrolidine-3-carboxylic acid] |
| 73.9% | COc1ccc(C2C(C(=O)O)C(c3ccc4c(c3)OCO4)CN2CC(=O)N2CCCC2)cc1 (stereo not drawn) [Example 17, trans,trans-2-(4-Methoxyphenyl)-4-(1,3-benzodioxol-5-yl)-1-(pyrrolidin-1-ylcarbonylmethyl)-pyrrolidine-3-carboxylic acid] |
| 83.0% | COCCOCCN1CC(c2ccc(OC)cc2)C(C(=O)O)C1c1ccc2c(c1)OCO2 (stereo not drawn) [Example 26, trans,trans-2-(1,3-Benzodioxol-5-yl)-4-(4-methoxyphenyl)-1-[2-(2-methoxyethoxy)ethyl)]-pyrrolidine-3-carboxylic acid] |
| 85.3% | CCCN(C)C(=O)CN1CC(c2ccc3c(c2)OCCO3)C(C(=O)O)C1c1ccc(OC)cc1 (stereo not drawn) [Example 29, trans,trans-2-(4-Methoxyphenyl)-4-(1,4-benzodioxan-6-yl)-1-(N-methyl-N-propylaminocarbonylmethyl)-pyrrolidine-3-carboxylic acid] |
| 95.5% | COc1ccc(C2C(C(=O)O)C(c3ccc4c(c3)OCO4)CN2CC(=O)N(CCC(C)C)CCC(C)C)cc1 (stereo not drawn) [Example 34, trans,trans-2-(4-Methoxyphenyl)-4-(1,3-benzodioxol-5-yl)-1-(N,N-diisoamylaminocarbonylmethyl)-pyrrolidine-3carboxylic acid] |
| 91.8% | CCCCCN(CCCCC)C(=O)CN1CC(c2ccc3c(c2)OCO3)C(C(=O)O)C1c1ccc(OC)cc1 (stereo not drawn) [Example 35, trans,trans-2-(4-Methoxyphenyl)-4-(1,3-benzodioxol-5-yl)-1-(N,N-dipentylaminocarbonylmethyl)-pyrrolidine-3-carboxylic acid] |
| 94.5% | COCCN(CCOC)C(=O)CN1CC(c2ccc3c(c2)OCO3)C(C(=O)O)C1c1ccc(OC)cc1 (stereo not drawn) [Example 36, trans,trans-2-(4-Methoxyphenyl)-4-(1,3-benzodioxol-5-yl)-1-(N,N-di(2-methoxyethyl)aminocarbonylmethyl)-pyrrolidine-3-carboxylic acid] |
| 47.9% | CCCC#CCN1CC(c2ccc3c(c2)OCO3)C(C(=O)O)C1c1ccc(OC)cc1 (stereo not drawn) [Example 37, trans,trans-2-(4-Methoxyphenyl)-4-(1,3-benzodioxol-5-yl)-1-(2-hexynyl)-pyrrolidine-3-carboxylic acid] |
